Data as given in US8664203B2, “Thiazole derivatives and their use as P2Y12 receptor antagonists” (Actelion Pharmaceuticals Ltd., priority 2009, dated 2014).
Where a name gives a salt, the structure may show the parent alone.

Target: T1, human P2Y12 receptor (Homo sapiens, UniProt Q9H244)
T1 construct: expressed in transfected cells; host or cells: CHO cells
Assay: P2Y12 receptor binding assay
Conditions: CHO cells with recombinant expression of the human P2Y12 receptor; tritium-labeled 2-methyl-S-ADP; RT, 2 hours
Procedure: P2Y12 Receptor Binding Assay
Chinese Hamster Ovary (CHO) cells with recombinant expression of the human P2Y12 receptor were cultured in 24 well cell-culture plates. Cells were washed three times with binding buffer (50 mM Tris pH 7.4, 100 mM NaCl, 1 mM EDTA, 0.5% BSA). The cells were then incubated with 0.5 ml per well binding buffer containing tritium-labeled 2-methyl-thio-adenosine 5′-diphosphate (2-methyl-S-ADP) (between 100′000 and 300′000 dpm per well) and various concentrations of test compounds. After incubation at RT for 2 hours, cells were washed three times with binding buffer. Then, cells were solubilized by addition of 0.5 ml solubilization buffer (SDS, NaOH, EDTA). The content of each well was then transferred into beta-counter vials and 2.0 ml of Ultima Gold Scintillation liquid was added.

T1 sequence (Q9H244 whole entry): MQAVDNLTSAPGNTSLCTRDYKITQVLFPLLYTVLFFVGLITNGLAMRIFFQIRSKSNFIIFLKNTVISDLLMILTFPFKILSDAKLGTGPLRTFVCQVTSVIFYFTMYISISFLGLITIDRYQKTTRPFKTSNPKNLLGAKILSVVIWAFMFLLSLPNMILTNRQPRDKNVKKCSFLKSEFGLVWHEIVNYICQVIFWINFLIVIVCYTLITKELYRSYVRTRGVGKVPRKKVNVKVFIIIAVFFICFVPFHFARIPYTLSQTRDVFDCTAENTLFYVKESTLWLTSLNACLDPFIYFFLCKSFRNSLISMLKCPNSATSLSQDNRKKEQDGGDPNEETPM

Structure (SMILES)	IC50
CCCCOC(=O)N1CCN(C(=O)CNC(=O)c2nc(-c3ccccc3)c(CCCOC)s2)CC1 [Example 52, 4-(2-{[5-(3-Methoxy-propyl)-4-phenyl-thiazole-2-carbonyl]-amino}-acetyl)-piperazine-1-carboxylic acid butyl ester]	0.743 µM
CCCCOC(=O)N1CCN(C(=O)[C@H](CCC(=O)OC(C)(C)C)NC(=O)c2nc(-c3ccccc3)sc2Br)CC1 [Example 14, 4-{(S)-2-[(5-Bromo-2-phenyl-thiazole-4-carbonyl)-amino]-4-tert-butoxycarbonyl-butyryl}-piperazine-1-carboxylic acid butyl ester]	1.22 µM
CCCCOC(=O)N1CCN(C(=O)[C@H](CP(=O)(OCC)OCC)NC(=O)c2csc(-c3ccccc3)n2)CC1 [Example 8, 4-{(R)-3-(Diethoxy-phosphoryl)-2-[(2-phenyl-thiazole-4-carbonyl)-amino]-propionyl}-piperazine-1-carboxylic acid butyl ester]	0.502 µM
CCCCOC(=O)N1CCN(C(=O)[C@H](CCC(=O)O)NC(=O)c2csc(-c3ccccc3OC)n2)CC1 [Example 5, 4-((S)-4-Carboxy-2-{[2-(2-methoxy-phenyl)-thiazole-4-carbonyl]-amino}-butyryl)-piperazine-1-carboxylic acid butyl ester]	0.464 µM
CCCCCCN(C)c1sc(C(=O)NCC(=O)N2CCN(C(=O)OCCCC)CC2)nc1-c1ccccc1 [Example 60, 4-(2-{[5-(Hexyl-methyl-amino)-4-phenyl-thiazole-2-carbonyl]-amino}-acetyl)-piperazine-1-carboxylic acid butyl ester]	1.56 µM

These reach a lower IC50. Values come first.

IC50	Structure (SMILES)
0.003 µM	CCCCOC(=O)N1CCN(C(=O)[C@H](CP(=O)(O)O)NC(=O)c2nc(-c3ccccc3)sc2N2CCN(C)CC2)CC1 [Example 45, 4-((R)-2-{[5-(4-Methyl-piperazin-1-yl)-2-phenyl-thiazole-4-carbonyl]-amino}-3-phosphono-propionyl)-piperazine-1-carboxylic acid butyl ester; hydrochloride]
0.007 µM	CCCCOC(=O)N1CCN(C(=O)[C@H](CCC(=O)O)NC(=O)c2nc(-c3ccccc3)sc2Cl)CC1 [Example 16, 4-{(S)-4-Carboxy-2-[(5-chloro-2-phenyl-thiazole-4-carbonyl)-amino]-butyryl}-piperazine-1-carboxylic acid butyl ester]
0.028 µM	CCCCOC(=O)N1CCN(C(=O)[C@H](CCC(=O)O)NC(=O)c2nc(-c3ccccc3)sc2CCCOC)CC1 [Example 22, 4-((S)-4-Carboxy-2-{[5-(3-methoxy-propyl)-2-phenyl-thiazole-4-carbonyl]-amino}-butyryl)-piperazine-1-carboxylic acid butyl ester]
0.157 µM	CCCCOC(=O)N1CCN(C(=O)CNC(=O)c2nc(-c3ccccc3)sc2CCC(=O)OCC)CC1 [Example 32, 4-(2-{[5-(2-Ethoxycarbonyl-ethyl)-2-phenyl-thiazole-4-carbonyl]-amino}-acetyl)-piperazine-1-carboxylic acid butyl ester]
0.104 µM	CCCCOC(=O)N1CCN(C(=O)[C@@H](NC(=O)c2csc(-c3ccccc3)n2)C(C)C)CC1 [Example 36, 4-{(S)-3-Methyl-2-[(2-phenyl-thiazole-4-carbonyl)-amino]-butyryl}-piperazine-1-carboxylic acid butyl ester]
0.314 µM	CCCCOC(=O)N1CCN(C(=O)CNC(=O)c2nc(-c3ccccc3)c(CCC(=O)O)s2)CC1 [Example 55, 4-(2-{[5-(2-Carboxy-ethyl)-4-phenyl-thiazole-2-carbonyl]-amino}-acetyl)-piperazine-1-carboxylic acid butyl ester]
0.085 µM	CCCCOC(=O)N1CCN(C(=O)CNC(=O)c2nc(-c3ccccc3)sc2C=CCOC)CC1 [Example 34, 4-(2-{[5-(3-Methoxy-propenyl)-2-phenyl-thiazole-4-carbonyl]-amino}-acetyl)-piperazine-1-carboxylic acid butyl ester]
